The values that follow come from BindingDB's records for doi:10.1016/S0960-894X(01)81014-3 (1993).

A short description of the experiment: Compound was evaluated for binding affinity against Opioid receptor delta 1 binding assay: Inactive.

Each structure is given as a SMILES string. Residues, ends and D or L forms follow the SMILES beside them. *: point of attachment. Adamantane1carbonyl = O=C(C12CC3CC(CC(C3)C1)C2)*

With `CC[C@H](C)[C@H](NC(=O)[C@H](Cc1ccc(O)cc1)NC(=O)[C@@H]1CCCN1C(=O)[C@H](CCCCN)NC(=O)C12CC3CC(CC(C3)C1)C2)C(=O)N[C@@H](CC(C)C)C(=O)O` [(S)-2-{(2S,3S)-2-[(S)-2-[((S)-1-{(S)-2-[(Adamantane-1-carbonyl)-amino]-6-amino-hexanoyl}-pyrrolidine-2-carbonyl)-amino]-3-(4-hydroxy-phenyl)-propionylamino]-3-methyl-pentanoylamino}-4-methyl-pentanoic acid] (Adamantane1carbonyl-KPYIL-OH), the Ki is greater than 100 µM.
